Square brackets hold non-standard residues; d marks the D form. Peptide text beside a SMILES is read from it. * marks the point of attachment. Cbz = O=C(OCc1ccccc1)*

In data set [1] the test system is BMSCs, PBMNCs and MSCs. As to the kind of experiment: Viability/proliferation of primary untransformed human cells. It counts as cell-based. The settings on record: up to 100 μM; 48 hrs or 144 hrs. How it is done:
In order to determine the in vitro therapeutic index of Z-/mDTPs, viability and proliferation assays were also performed with primary untransformed cells of both human and mouse origin, after treatment with either 10 μM or 100 μM of Z-DTP1, Z-DTP2 and Z-DNC. To this end, bone marrow stromal cells (BMSCs) peripheral blood mononuclear cells (PBMNCs) and mesenkymal stem cells (MSCs) were purified from healthy individuals after Ficoll-Hypaque density separation, in accordance with the protocols reported in the reference by Piva R. et all 2008 Blood 111: 2765-2775). BMSCs, PBMNCs, and MSCs cells were then treated for the times indicated and with the peptide concentrations specified in FIGS. 15A and 15B. To further establish the specificity of the cytotoxic activity of Z-/mDTPs for cancer cells, we also used primary B and T lymphocytes purified from the spleen and lymph nodes of mice, respectively, essentially as described in the reference by Shirakawa et al 2010 Cell Mal immunology 1-12. B and T cells were then activated by simulation with 1 ng/mL of LPS for 16 hrs and subsequently treated with 100 μM of Z-DTP1, Z-DTP2 or Z-DNC for 72 hrs as shown in FIG. 15B.

The target in data set [2] is T1, Gadd45β-inhibited MKK7 (Homo sapiens, UniProt O14733).
T1 construct: expressed in transfected cells; host or cells: HEK-293 (FLAG-MKK7); bacteria (GST-hGadd45β)
T1 sequence (O14733 1-419): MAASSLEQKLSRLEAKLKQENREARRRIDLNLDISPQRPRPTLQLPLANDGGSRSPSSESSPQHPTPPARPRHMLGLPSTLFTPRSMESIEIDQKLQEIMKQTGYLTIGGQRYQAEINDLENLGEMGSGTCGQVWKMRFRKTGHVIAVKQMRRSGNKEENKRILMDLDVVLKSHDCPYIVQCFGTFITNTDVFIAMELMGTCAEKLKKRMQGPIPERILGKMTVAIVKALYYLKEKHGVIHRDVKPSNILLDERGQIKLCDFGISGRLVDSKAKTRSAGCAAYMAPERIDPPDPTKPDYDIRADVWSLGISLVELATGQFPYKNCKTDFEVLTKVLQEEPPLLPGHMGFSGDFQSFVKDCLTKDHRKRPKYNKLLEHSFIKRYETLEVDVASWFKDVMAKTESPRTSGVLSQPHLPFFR
As to the kind of experiment: MKK7 kinase assay in the presence of recombinant hGadd45β. It counts as biochemical. The settings on record: 1 nM or 5 nM peptide, 5 μM GST-hGadd45β. How it is done:
In FIG. 6, transient transfection of pcDNA-FLAG-MKK7 in HEK-293 cells was performed using the method of Ca3(PO4)2 precipitation, essentially as described in Papa, S et al., (2004) Nat. Cell Biol. 6, 146-153 and references therein. 36 hrs after transfection, the cells were treated with 100 ng/ml phorbol 12-myristate 13-acetate (PMA) and 1 μM ionomycin for 30 min at 37° C. Cell extracts were prepared as described in example 4 and used for immunoprecipitation with anti-FLAG antibodies (binding to FLAG-MKK7) as described in Papa, S et al., (2004) Nat. Cell Biol. 6, 146-153 and references therein. Briefly, 50 μg of cell lysate from PMA-ionomycin (P/D-treated or untreated, HEK-293 cells transiently expressing FLAG-MKK7 was incubated with 10 μl of anti-FLAG M2 Affinity Gel (SIGMA) for 4 hrs at 4° C. during rotation. The immunoprecipitates were then washed 3 times in lysis buffer and twice more in kinase buffer (10 mM HEPES, 5 mM MgCl2, 1 mM MnCl2,12.5 mM β-glycerophosphate, 2 mM DTT, 4 mM NaF and 0.1 mM Na3VO4). MKK7 catalytic activity was finally measured in kinase assays by incubating FLAG-MKK7 immunoprecipitates at 30° C. for 20 min with 20 μl of kinase buffer containing 2 μM of recombinant GST-JNK1 and 5 μCi of [γ-^32P]ATP) (kinase reaction), as described in Papa, S et a., (2004) Nat. Cell Biol. 6, 146-153 and references therein.
In some reactions, to test the ability of D-tetrapeptide antagonists to disrupt the Gadd45β-MKK7 interaction and so release the catalytic activity of MKK7 from Gadd45β-afforded inhibition, FLAG-MKK7 immunoprecipitates were 1) first pre-incubated for 10 min at 30° C. with either 1 nM or 5 nM of DTP1, DTP2 or negative control (NC) D-tetrapeptides, NC1, NC2, NC3 and NC4, and 2) then incubated for another 10 min at 30° C. with or without 5 μM of a GST-fusion protein of recombinant human (h)Gadd45β (GST-hGadd45β; purified from bacterial lysates as described in Papa, S., (2007) J. Biol. Chem. 282, 19029-19041), before using them for the kinase reaction described above, as indicated in FIG. 6.
In all cases, kinase reactions were terminated by the addition of Laemmli sample buffer. […] For a further discussion of MKK7 kinase assay conditions, the reader is directed to Papa, S et al., (2007) J. Biol. Chem. 282, 19029-19041 and Papa, S et al., (2004) Nat. Cell Biol. 6, 146-153 and the references therein.

In data set [3] the target is T2, Gadd45β/MKK7 interaction (Homo sapiens, UniProt O14733).
T2 construct: The GST-fused full-length kinase was coated for 16 h at 4° C., at a concentration of 42 nM; made in house
T2 sequence (O14733 1-419): T1 sequence (O14733 1-419)
As to the kind of experiment: Co-immunoprecipitation assay, lysates of HEK-293 cells expressing HA-Gadd45β and FLAG-MKK7. The class given is binding. As to conditions: 1 or 5 nM peptide. As to the method:
Human Embryonic Kidney (HEK-293) were cultured in Dulbecco's modified Eagle's medium (DMEM) supplemented with 10% fetal calf serum (FCS), 100 units/ml penicillin, […] streptomycin, and 1% glutamine. HEK-293 cells (2.2×10^6) were seeded onto 10 cm^2 tissue-culture dishes, and the following day, were transfected with pcDNA-FLAG-MKK7 and pcDNA-HA-Gadd45β plasmids, using a standard Ca3(PO4)2 precipitation technique (Papa, S et al., (2004) Nat. Cell Biol. 6, 146-153). Forty-eight hours after transfection, the cells were washed once with PBS, then resuspended and incubated for 30 min at 4° C. in lysis buffer (20 mM HEPES, 350 mM NaCl, 20% glycerol, 1 mM MgCl2, 0.2 mM EGTA, 1 mM DTT, 1 mM Na3VO4, and 50 mM NaF) supplemented with protease inhibitors (1 mM phenylmethylsulfonylfluoride, 10 μM chymostatin, 2 μg/ml aprotinin, and 2 μg/ml leupeptin) with occasional gentle shaking. The lysed cells were collected and then centrifuged at 45,000×g for 40 min. The resulting cleared cell lysates were used for further analysis.
Immunoprecipitations were performed using essentially the same conditions described in Papa, S et al., (2004) Nat. Cell Biol. 6, 146-153 and the references therein, and an anti-FLAG antibody which precipitated FLAG-tagged MKK7. […]

Consider `NC(=O)[C@@H](Cc1ccccc1)NC(=O)[C@@H](Cc1c[nH]cn1)NC(=O)[C@@H](CC(=O)O)NC(=O)[C@@H](Cc1ccc(O)cc1)NC(=O)OCc1ccccc1` [Compound 1, Z-Tyr-Asp-His-Phe-NH2] (Cbz-[dY][dD][dH][dF]-NH2), for which, in data set [1], the “toxicity to normal primary human cells (BMSCs, PBMNCs, MSCs)” value is reported as “no toxicity”.
As to `CC(=O)N[C@H](Cc1ccc(O)cc1)C(=O)N[C@H](CC(=O)O)C(=O)N[C@H](Cc1c[nH]cn1)C(=O)N[C@H](Cc1ccccc1)C(N)=O` [DTP1, Acetyl-(D-Tyr)-(D-Asp)-(D-His)-(D-Phe)-NH2] (Ac-[dY][dD][dH][dF]-NH2), the “restoration of MKK7 catalytic activity” value in data set [2] is “fully restored the catalytic activity of MKK7”. In addition, the “disruption of the Gadd45β/MKK7 interaction in co-immunoprecipitation” value in data set [3] was “no or very little Gadd45β”.
For the molecule `CC(=O)N[C@H](Cc1ccc(O)cc1)C(=O)N[C@H](CCC(=O)O)C(=O)N[C@H](CCCNC(=N)N)C(=O)N[C@H](Cc1ccccc1)C(N)=O` [DTP2, Acetyl-(D-Tyr)-(D-Glu)-(D-Arg)-(D-Phe)-NH2] (Ac-[dY][dE][dR][dF]-NH2), the “restoration of MKK7 catalytic activity” value in data set [2] is given as “fully restored the catalytic activity of MKK7”. For the same molecule, the “disruption of the Gadd45β/MKK7 interaction in co-immunoprecipitation” value in data set [3] was “no or very little Gadd45β”.
Turning to `N=C(N)NCCC[C@@H](NC(=O)[C@@H](CCC(=O)O)NC(=O)[C@@H](Cc1ccc(O)cc1)NC(=O)OCc1ccccc1)C(=O)N[C@H](Cc1ccccc1)C(N)=O` [Compound 9, Z-D-Tyr-D-Glu-D-Arg-D-Phe-NH2] (Cbz-[dY][dE][dR][dF]-NH2), the “toxicity to normal primary human cells (BMSCs, PBMNCs, MSCs)” value in data set [1] is “no toxicity”.

These data come from patent publication US8993717B2, “Gadd45beta targeting agents” (Imperial Innovations Limited, priority 2009, dated 2015).
